Results on five compounds are retold here after article PMC4718399 (Nature chemical biology, 2015).

For series [1], the target named is T1, β2R (Homo sapiens, UniProt P07550, N187E, form not given). The class given is biochemical. The settings on record: 200μM solubilized lipid; for modulation of β2R activation by solubilized phospholipid: 200μM isoproterenol.
In series [2] the target is T1, β2R. The series is described as follows: Mass spectrometry quantification of lipids bound to purified β2R. As to conditions: β2R purified from Sf9 cells with 0.5% DDM.
The target in series [3] is T1, β2R. The experiment in a line: Bimane fluorescence spectroscopy. As to conditions: for basal (agonist-free) bimane emission λmax: bimane-labelled receptor reconstituted in rHDL of the given lipid, no ligand; for rate and magnitude of change in λmax upon agonist: rHDL of the given lipid, 200 μM isoproterenol, relative to basal fluorescence in detergent. The format is biochemical.

For the compound `CCCCCCCC/C=C\CCCCCCCC(=O)OC[C@H](COP(=O)(O)OC[C@H](N)C(=O)O)OC(=O)CCCCCCC/C=C\CCCCCCCC` [DOPS], the “modulation of β2R activation by solubilized phospholipid” value (from here on “modulation of β2R activation”) at β2R [1] is “positive effect albeit not as strong”.

With phosphatidylglycerol [PG], the “share of all β2R-bound lipids” value on β2R [2] is on record as “over 16%”.

Turning to `CCCCCCCC/C=C\CCCCCCCC(=O)OC[C@H](COP(=O)(O)OCC(O)CO)OC(=O)CCCCCCC/C=C\CCCCCCCC` (stereo partly shown) [DOPG], on β2R [3], the “basal (agonist-free) bimane emission λmax” value is given as “about 455 nm”; the “rate and magnitude of change in λmax upon agonist” value (“rate and magnitude of change” below) was “fastest rate of change and the largest shift in λmax”. The “basal λmax shift” value on β2R [1] (1μM β2R, 500μM DDM, 600μM cholate) came to 4 nm. For the same compound, the “modulation of β2R activation” value on β2R [1] is reported as “strongest positive modulator”. The “share of all β2R-bound lipids” value at β2R [2] was “over 7%”.

Take `CCCCCCCC/C=C\CCCCCCCC(=O)OC[C@H](COP(=O)([O-])OCC[N+](C)(C)C)OC(=O)CCCCCCC/C=C\CCCCCCCC` [DOPC]: at β2R [3], the “basal (agonist-free) bimane emission λmax” value is reported as “about 450 nm”; the “rate and magnitude of change” value was “intermediate”. For the same compound, the “modulation of β2R activation” value at β2R [1] is reported as “little or no effect”.

For the compound `CCCCCCCC/C=C\CCCCCCCC(=O)OC[C@H](COP(=O)(O)OCCN)OC(=O)CCCCCCC/C=C\CCCCCCCC` [DOPE], at β2R [3], the “basal (agonist-free) bimane emission λmax” value is “about 450 nm”; the “rate and magnitude of change” value was “smallest change and slowest rate of change”. Besides, on β2R [1], the “modulation of β2R activation” value was “little or no effect”.
